This note sets out measurements from EP0209237A2, “Vinyl-glycyl-amino-beta-lactam derivatives” (BEECHAM GROUP PLC, priority 1985, dated 1987).

Values after ≈ are worked out from the molar mass of the structure shown.

Data set [1] is described as follows: Squirrel monkey plasma levels. It counts as in vivo. The following applies: for concentration at 0.25 h: 15 minutes, read-out: Plasma Levels, Time in Minutes 15; for concentration at 0.5 h: 30 minutes, read-out: Plasma Levels, Time in Minutes 30; for concentration at 1 h: 60 minutes, read-out: Plasma Levels, Time in Minutes 60; for concentration at 2 h: 120 minutes, read-out: Plasma Levels, Time in Minutes 120; for concentration at 4 h: 240 minutes, read-out: Plasma Levels, Time in Minutes 240; for concentration at 6 h: 360 minutes, read-out: Plasma Levels, Time in Minutes 360; for AUC: read-out: Area under the curve.

The subject of data set [2] is S.pyogenes CN 10. The data set is described as follows: Minimum Inhibitory Concentration (MIC), agar dilution. It counts as cell-based. To be noted: 5% v/v horse blood agar, two-fold dilutions, read after 24 hours; unit assumed. As to the method: (§1) The following Table gives Minimum Inhibitory Concentration (MIC) values for some of the compounds of the invention against S.pyogenes CN 10 and E.coli NCTC 10418. The E. coli was grown in tryptone soya broth and the S. pyogenes was grown in Todd Hewitt broth. The microorganisms were grown for 24hours and lul samples were then inoculated on to agar plates (comprising 5% v/v live horse blood agar) to which had been added the compounds of the invention at a series of two-fold dilutions.
On the technique in general: Agar dilution tests growth on a series of plates holding different concentrations.

The subject of data set [3] is E.coli NCTC 10418. The data set is described as above. Format: cell-based. To be noted: 5% v/v horse blood agar, two-fold dilutions, read after 24 hours; unit assumed. On the procedure: as §1

On to `CC1(C)S[C@@H]2[C@H](NC(=O)[C@H](N)c3ccc(O)cc3)C(=O)N2[C@H]1C(=O)O` [Amoxycillin, reference compound], for which, in data set [1], the concentration at 0.25 h is 4800 ng/mL, the concentration at 0.5 h came out at 9700 ng/mL, the concentration at 1 h stood at 12600 ng/mL and the concentration at 2 h was determined as 6700 ng/mL. Further, in data set [1], the concentration at 4 h was found to be 1100 ng/mL, the concentration at 6 h was found to be 300 ng/mL and the AUC was determined as 26200 ng·h/mL.

Take `C/C(=C\Cl)[C@@H](N)C(=O)N[C@@H]1C(=O)N2[C@@H]1SC(C)(C)[C@@H]2C(=O)O` [Example 21 (D-stereoisomer), 6β-(D-2-Amino-4-chloro-3-methylbut-3(E)-enamido)-penicillanic acid]: the MIC S. pyogenes CN 10 in data set [2] stood at 0.06 µg/mL (≈ 0.173 µM). In data set [3], this compound gave an MIC E. coli NCTC 10418 of 4 µg/mL (≈ 11.5 µM).

Consider `CC1(C)S[C@@H]2[C@H](NC(=O)C(N)/C(=C/Cl)c3cccs3)C(=O)N2[C@H]1C(=O)O` (stereo partly drawn) [Example 19, 6β-(D,L-2-Amino-4-chloro-3-thien-2-ylbut-3(Z)-enamido)penicillanic acid], for which, in data set [2], the MIC S. pyogenes CN 10 was under 0.03 µg/mL. The MIC E. coli NCTC 10418 in data set [3] was determined as 16 µg/mL (≈ 38.5 µM).

For `C=C(C)[C@@H](N)C(=O)N[C@@H]1C(=O)N2C(C(=O)O)=C(COC(C)=O)CS[C@H]12` [Example 7, 7,β-(D-2-Amino-3-methylbut-3-enamido)cephalosporanic acid], in data set [2], the MIC S. pyogenes CN 10 was 0.25 µg/mL (≈ 0.677 µM). Further, in data set [3], the MIC E. coli NCTC 10418 came out at 32 µg/mL (≈ 86.6 µM).

Regarding `CC1(C)S[C@@H]2[C@H](NC(=O)C(N)/C(=C\Cl)c3cccs3)C(=O)N2[C@H]1C(=O)O` (stereo partly drawn) [Example 20, 6B-(D,L-2-Amino-4-chloro-3-thien-2-ylbut-3(E)-enamido)penicillanic acid], the MIC S. pyogenes CN 10 in data set [2] worked out at 0.06 µg/mL (≈ 0.144 µM). This compound also displayed an MIC E. coli NCTC 10418 in data set [3] of 32 µg/mL (≈ 76.9 µM).

As to `C=C(c1ccccc1)[C@@H](N)C(=O)N[C@@H]1C(=O)N2[C@@H]1SC(C)(C)[C@@H]2C(=O)O` [Example 4 (D-stereoisomer), 6β-(D-2-amino-3-phenylbut-3-enamido)penicillanic acid], the MIC S. pyogenes CN 10 in data set [2] is under 0.03 µg/mL. The same compound gave an MIC E. coli NCTC 10418 in data set [3] of 8 µg/mL (≈ 21.3 µM).

As to `C=C[C@@H](N)C(=O)N[C@@H]1C(=O)N2[C@@H]1SC(C)(C)[C@@H]2C(=O)O` [Example 1, 6β-(D-2-Aminobut-3-enamido)penicillanic acid], in data set [1], the concentration at 0.25 h was 4000 ng/mL, the concentration at 0.5 h is 14700 ng/mL, the concentration at 1 h was found to be 32700 ng/mL and the concentration at 2 h worked out at 15700 ng/mL. In data set [1], the concentration at 4 h was determined as 2400 ng/mL, the concentration at 6 h was 800 ng/mL and the AUC was 59700 ng·h/mL. Further, the MIC S. pyogenes CN 10 in data set [2] came to 0.03 µg/mL (≈ 0.1 µM). This compound had an MIC E. coli NCTC 10418 in data set [3] of 8 µg/mL (≈ 26.7 µM).

The compound `CC(=O)OC/C=C/[C@@H](N)C(=O)N[C@@H]1C(=O)N2[C@@H]1SC(C)(C)[C@@H]2C(=O)O` [Example 23, 6β-[5-Acetoxy-D-2-aminopent-3(E)-enamido] penicillanic acid] had an MIC S. pyogenes CN 10 in data set [2] of 0.12 µg/mL (≈ 0.323 µM). This compound also returned an MIC E. coli NCTC 10418 in data set [3] of 32 µg/mL (≈ 86.2 µM).

As for `C=C(C)[C@@H](N)C(=O)N[C@@H]1C(=O)N2C(C(=O)O)=C(C)CS[C@H]12` [Example 8, 7,β-[D-2-Amino-3-methylbut-3-enamido]-3-desacetoxy cephalosporanic acid], the MIC S. pyogenes CN 10 in data set [2] came to 2 µg/mL (≈ 6.42 µM).

`C=C(CC)[C@@H](N)C(=O)N[C@@H]1C(=O)N2[C@@H]1SC(C)(C)[C@@H]2C(=O)O` [Example 9 (D-stereoisomer), 6,β-(D-2-amino-3-ethylbut-3-enamido)penicillanic acid] showed an MIC S. pyogenes CN 10 in data set [2] of under 0.03 µg/mL. Besides, the MIC E. coli NCTC 10418 in data set [3] worked out at 2 µg/mL (≈ 6.11 µM).

The compound `CC1(C)S[C@@H]2[C@H](NC(=O)[C@H](N)/C=C/c3ccccc3)C(=O)N2[C@H]1C(=O)O` [Example 15 (D-stereoisomer), 6p-(D-2-amino-4-phenylbut-3(E)enamido)penicillanic acid] gave an MIC S. pyogenes CN 10 in data set [2] of under 0.06 µg/mL. In data set [3], this compound came in with an MIC E. coli NCTC 10418 of 16 µg/mL (≈ 42.6 µM).

`CC/C=C/[C@@H](N)C(=O)N[C@@H]1C(=O)N2[C@@H]1SC(C)(C)[C@@H]2C(=O)O` [Example 13 (D-stereoisomer), 6p-(D-2-aminohex-3(E)-enamido)penicillanic acid] returned an MIC S. pyogenes CN 10 in data set [2] of under 0.06 µg/mL. Also, the MIC E. coli NCTC 10418 in data set [3] was 4 µg/mL (≈ 12.2 µM).

In data set [2], `C=C/C=C(\C)[C@@H](N)C(=O)N[C@@H]1C(=O)N2[C@@H]1SC(C)(C)[C@@H]2C(=O)O` [Example 12 (D-stereoisomer), 6β-(D-2-amino-3-methylhex-3(E), 5-dienamido)penicillanic acid] came in with an MIC S. pyogenes CN 10 of 0.06 µg/mL (≈ 0.177 µM). The compound also returned an MIC E. coli NCTC 10418 in data set [3] of 2 µg/mL (≈ 5.89 µM).

Compound `CC1(C)S[C@@H]2[C@H](NC(=O)[C@H](N)/C=C/C3CCCCC3)C(=O)N2[C@H]1C(=O)O` [Example 14 (D-stereoisomer), 6β-(D-2-amino-4-cyclohexylbut-3(E)-enamido)penicillanic acid] had an MIC S. pyogenes CN 10 in data set [2] of under 0.06 µg/mL. Moreover, in data set [3], the MIC E. coli NCTC 10418 amounted to 16 µg/mL (≈ 41.9 µM).

As to `C=C(c1cccs1)[C@@H](N)C(=O)N[C@@H]1C(=O)N2[C@@H]1SC(C)(C)[C@@H]2C(=O)O` [Example 18 (D-stereoisomer), 6β-(D-2-amino-3-thien-2-yl-but-3-enamido)penicillanic acid], in data set [2], the MIC S. pyogenes CN 10 was 0.06 µg/mL (≈ 0.157 µM). In data set [3], this compound had an MIC E. coli NCTC 10418 of 16 µg/mL (≈ 41.9 µM).

The compound `C=C([C@@H](N)C(=O)N[C@@H]1C(=O)N2[C@@H]1SC(C)(C)[C@@H]2C(=O)O)C(F)(F)F` [Example 17 (D-stereoisomer), 6,P-(D-2-amino-3-trifluoromethylbut-3-enamido)penicillanic acid] came in with an MIC S. pyogenes CN 10 in data set [2] of under 0.06 µg/mL. Moreover, the MIC E. coli NCTC 10418 in data set [3] was 4 µg/mL (≈ 10.9 µM).

Compound `C/C=C/[C@@H](N)C(=O)N[C@@H]1C(=O)N2[C@@H]1SC(C)(C)[C@@H]2C(=O)O` [Example 11 (D-stereoisomer), 6β-(D-2-Amino-pent-3(E)-enamido)penicillanic acid] came in with an MIC S. pyogenes CN 10 in data set [2] of under 0.06 µg/mL. This compound returned an MIC E. coli NCTC 10418 in data set [3] of 8 µg/mL (≈ 25.5 µM).

In data set [2], `C/C(=C/Cl)C(N)C(=O)N[C@@H]1C(=O)N2[C@@H]1SC(C)(C)[C@@H]2C(=O)O` (stereo partly drawn) [Example 22, 6β-(D,L-2-Amino-4-chloro-3-methylbut-3(Z)-enamido) penicillanic acid] gave an MIC S. pyogenes CN 10 of 0.12 µg/mL (≈ 0.345 µM). In data set [3], this compound showed an MIC E. coli NCTC 10418 of 8 µg/mL (≈ 23 µM).

Regarding `C/C=C(\C)[C@@H](N)C(=O)N[C@@H]1C(=O)N2[C@@H]1SC(C)(C)[C@@H]2C(=O)O` [Example 10 (D-stereoisomer), 6β-(D-2-amino-3-methylpent-3(E)-enamido)penicillanic acid], the MIC S. pyogenes CN 10 in data set [2] was under 0.06 µg/mL. The MIC E. coli NCTC 10418 in data set [3] was 2 µg/mL (≈ 6.11 µM).

As to `CC1(C)S[C@@H]2[C@H](NC(=O)C(N)/C=C/c3ccc(Cl)cc3)C(=O)N2[C@H]1C(=O)O` (stereo partly drawn) [Example 16, 6β-[D,L-2--Amino-4-(4-chlorophenyl)but-3(E)-enamido]penicillanic acid], in data set [2], the MIC S. pyogenes CN 10 was under 0.06 µg/mL. In data set [3], this compound registered an MIC E. coli NCTC 10418 of 16 µg/mL (≈ 39 µM).
